Test results from US20120083522A1, “MODULATION OF INFLAMMATORY RESPONSES BY FACTOR XI” (Isis Pharmaceuitcals, inc., priority 2009, published 2012).
In the oligonucleotide strings, read from the 5' end, every base follows the letter of its sugar. An asterisk marks phosphorothioate; unmarked linkages are phosphodiester. Other units and linkages are bracketed, terminal groups are in braces. A string of capitals states the bases alone. e = 2'-O-(2-methoxyethyl) (MOE); [5mC] = 5-methylcytosine; d = 2'-deoxy (DNA)

Tests used:
mouse Factor XI mRNA = assay: Cross-reactive antisense inhibition in primary mouse hepatocytes, 100 nM (Example 9); type: cell-based; conditions: approx. 24 h, percent inhibition relative to untreated control cells
Description: Antisense oligonucleotides targeted to a murine Factor XI nucleic acid were tested for their effects on Factor XI mRNA in vitro. Cultured primary mouse hepatocytes at a density of 10,000 cells per well were treated with 100 nM antisense oligonucleotide. After a treatment period of approximately 24 hours, RNA was isolated from the cells and mouse Factor XI mRNA levels were measured by quantitative real-time PCR. Factor XI mRNA levels were adjusted according to total RNA content, as measured by RIBOGREEN®. Results are presented as percent inhibition of Factor XI, relative to untreated control cells.
The chimeric antisense oligonucleotides in Tables 16 were designed as 5-10-5 MOE gapmers. The gapmers are 20 nucleotides in length, wherein the central gap segment is comprised of 10 2′-deoxynucleotides and is flanked on both sides (in the 5′ and 3′ directions) by wings comprising 5 nucleotides each. Each nucleotide in the 5′ wing segment and each nucleotide in the 3′ wing segment has a 2′-MOE modification. The internucleoside linkages throughout each gapmer are phosphorothioate (P═S) linkages. All cytidine residues throughout each gapmer are 5-methylcytidines. “Mouse target start site” indicates the 5′-most nucleotide to which the gapmer is targeted. “Mouse target stop site” indicates the 3′-most nucleotide to which the gapmer is targeted. All the mouse oligonucleotides listed show cross-reactivity between the mouse Factor XI mRNA (GENBANK Accession No. NM_028066.1), incorporated herein as SEQ ID NO: 6 and the human Factor XI mRNA (GENBANK Accession No. NM_000128.3), incorporated herein as SEQ ID NO: 1. “Human Target Start Site” indicates the 5′-most nucleotide in the human mRNA (GENBANK Accession No. NM_000128.3) to which the antisense oligonucleotide is targeted. “Human Target Stop Site” indicates the 3′-most nucleotide in the human mRNA (GENBANK Accession No. NM_000128.3) to which the antisense oligonucleotide is targeted. “Number of mismatches” indicates the mismatches between the mouse oligonucleotide and the human mRNA sequence.

[1] = Tolerability in CD1 mice: body and organ weights (Example 21); type: in vivo; conditions: 50 mg/kg s.c. twice per week for 6 weeks; for Body weight: increase over PBS control weight before start of treatment; for Kidney weight / Liver weight / Spleen weight: percentage of the body weight
Description: Body weight was measured at the onset of the study and subsequently twice per week. The body weights of the mice are presented in Table 87 and are expressed increase in grams over the PBS control weight taken before the start of treatment. Liver, spleen, and kidney weights were measured at the end of the study, and are also presented in Table 87 as percentage of the body weight.

[2] = Tolerability in CD1 mice: liver function (Example 21); type: in vivo; set-up: Albumin: unit not given here; conditions: plasma, 50 mg/kg s.c. twice per week for 6 weeks
[3] = Tolerability in CD1 mice: kidney function (Example 21); type: in vivo; conditions: plasma, 50 mg/kg s.c. twice per week for 6 weeks
[4] = Tolerability in CD1 mice: hematology assays (Example 21); type: in vivo; conditions: 50 mg/kg s.c. twice per week for 6 weeks
[5] = Tolerability in Sprague-Dawley rats: body and organ weights (Example 23); type: in vivo; conditions: 50 mg/kg s.c. twice per week for 6 weeks; for Body weight: increase over PBS control weight before start of treatment; for Kidney weight / Liver weight / Spleen weight: percentage of the body weight
[6] = Tolerability in Sprague-Dawley rats: liver function (Example 23); type: in vivo; set-up: Albumin: unit not given here; conditions: plasma, 50 mg/kg s.c. twice per week for 6 weeks
[7] = Tolerability in Sprague-Dawley rats: kidney function (Example 23); type: in vivo; conditions: for BUN: plasma; for Total urine protein / Urine protein/creatinine ratio: total urine samples
[8] = Tolerability in Sprague-Dawley rats: hematology assays (Example 23); type: in vivo; set-up: RBC / WBC / Neutrophil / Lymphocyte / Platelets: unit not given here; conditions: blood

404050 (antisense eT*eG*e[5mC]*eT*eT*dG*dA*dA*dG*dG*dA*dA*dT*dA*dT*e[5mC]*e[5mC]*eA*eG*eA) [compound 404050]
Inhibition of mouse Factor XI mRNA levels (column headed SEQ ID No.) (mouse Factor XI mRNA): 82

404054 (antisense eT*eA*eG*eT*eT*d[5mC]*dA*dT*dG*d[5mC]*d[5mC]*d[5mC]*dT*dT*d[5mC]*eA*eT*eG*eT*e[5mC]) [compound 404054]
Inhibition of mouse Factor XI mRNA levels (column headed SEQ ID No.) (mouse Factor XI mRNA): 45

404055 (antisense eT*eG*eT*eT*eA*dT*dA*dG*dT*dT*d[5mC]*dA*dT*dG*d[5mC]*e[5mC]*e[5mC]*eT*eT*e[5mC]) [compound 404055]
Inhibition of mouse Factor XI mRNA levels (column headed SEQ ID No.) (mouse Factor XI mRNA): 27

404066 (antisense eA*eA*eT*eG*eT*d[5mC]*d[5mC]*d[5mC]*dT*dG*dA*dT*dA*d[5mC]*dA*eA*eG*e[5mC]*e[5mC]*eA) [compound 404066]
Inhibition of mouse Factor XI mRNA levels (column headed SEQ ID No.) (mouse Factor XI mRNA): 37

404067 (antisense eG*eG*eG*eA*eA*dA*dA*dT*dG*dT*d[5mC]*d[5mC]*d[5mC]*dT*dG*eA*eT*eA*e[5mC]*eA) [compound 404067]
Inhibition of mouse Factor XI mRNA levels (column headed SEQ ID No.) (mouse Factor XI mRNA): 39

404083 (antisense eT*eG*eT*eG*e[5mC]*dA*dG*dA*dG*dT*d[5mC]*dA*d[5mC]*d[5mC]*dT*eG*e[5mC]*e[5mC]*eA*eT) [compound 404083]
Inhibition of mouse Factor XI mRNA levels (column headed SEQ ID No.) (mouse Factor XI mRNA): 47

404087 (antisense eT*eT*e[5mC]*eT*eT*dG*dA*dA*d[5mC]*d[5mC]*d[5mC]*dT*dG*dA*dA*eG*eA*eA*eA*eG) [compound 404087]
Inhibition of mouse Factor XI mRNA levels (column headed SEQ ID No.) (mouse Factor XI mRNA): 29

404089 (antisense eT*eG*eA*eA*eT*dT*dA*dT*d[5mC]*dA*dT*dT*dT*d[5mC]*dT*eT*eG*eA*eA*e[5mC]) [compound 404089]
Inhibition of mouse Factor XI mRNA levels (column headed SEQ ID No.) (mouse Factor XI mRNA): 6

404090 (antisense eT*eG*eA*eT*e[5mC]*dA*dT*dG*dA*dA*dT*dT*dA*dT*d[5mC]*eA*eT*eT*eT*e[5mC]) [compound 404090]
Inhibition of mouse Factor XI mRNA levels (column headed SEQ ID No.) (mouse Factor XI mRNA): 42

ACAGTTTCTGGCAGGCCTCG (antisense; all C 5-methyl, all phosphorothioate, sugars by position not given here; MOE gapmer, 5-10-5) [ISIS 412223, 5-10-5 MOE gapmer]
Body weight [1]: 12 g
Kidney weight [1]: 1.5%
Liver weight [1]: 6%
Spleen weight [1]: 0.4%
ALT [2]: 60 IU/L
AST [2]: 125 IU/L
Albumin [2]: 3.0
Bilirubin [2]: 0.20 mg/dL
Cholesterol [2]: 117 mg/dL
BUN [3]: 28 mg/dL
HCT [4]: 48%
Hemoglobin [4]: 15 g/dL
Lymphocyte [4]: 4599 cells/μL
Monocytes [4]: 200 cells/μL
Neutrophil [4]: 1756 cells/μL
Platelets [4]: 862 10^3/μL
RBC [4]: 9 10^6/μL
WBC [4]: 7 10^3/μL
Body weight [5]: 126 g
Kidney weight [5]: 1.0%
Liver weight [5]: 5%
Spleen weight [5]: 0.5%
ALT [6]: 85 IU/L
AST [6]: 180 IU/L
Albumin [6]: 5
Bilirubin [6]: 0.14 mg/dL
creatinine [7]: 46 mg/dL
BUN [7]: 24 mg/dL
Total urine protein [7]: 224 mg/dL
Urine protein/creatinine ratio [7]: 4.6
HCT [8]: 41%
Hemoglobin [8]: 13.1 g/dL
Lymphocyte [8]: 16990
Neutrophil [8]: 1826
Platelets [8]: 567
RBC [8]: 7.2
WBC [8]: 20

GCAGCGGACGGCATTGGTGC (antisense; all C 5-methyl, all phosphorothioate, sugars by position not given here; MOE gapmer, 5-10-5) [ISIS 412225, 5-10-5 MOE gapmer]
Body weight [1]: 10 g
Kidney weight [1]: 1.5%
Liver weight [1]: 6%
Spleen weight [1]: 0.4%
ALT [2]: 40 IU/L
AST [2]: 69 IU/L
Albumin [2]: 3.3
Bilirubin [2]: 0.23 mg/dL
Cholesterol [2]: 128 mg/dL
BUN [3]: 23 mg/dL
HCT [4]: 50%
Hemoglobin [4]: 15 g/dL
Lymphocyte [4]: 4969 cells/μL
Monocytes [4]: 293 cells/μL
Neutrophil [4]: 1547 cells/μL
Platelets [4]: 574 10^3/μL
RBC [4]: 9 10^6/μL
WBC [4]: 7 10^3/μL
Body weight [5]: 184 g
Kidney weight [5]: 1.0%
Liver weight [5]: 4%
Spleen weight [5]: 0.5%
ALT [6]: 48 IU/L
AST [6]: 108 IU/L
Albumin [6]: 5
Bilirubin [6]: 0.15 mg/dL
creatinine [7]: 58 mg/dL
BUN [7]: 23 mg/dL
Total urine protein [7]: 209 mg/dL
Urine protein/creatinine ratio [7]: 4.0
HCT [8]: 42%
Hemoglobin [8]: 13.4 g/dL
Lymphocyte [8]: 13204
Neutrophil [8]: 1499
Platelets [8]: 673
RBC [8]: 7.4
WBC [8]: 15

GCATTGGTGCACAGTTTCTG (antisense; all C 5-methyl, all phosphorothioate, sugars by position not given here; MOE gapmer, 5-10-5) [ISIS 412224, 5-10-5 MOE gapmer]
Body weight [1]: 10 g
Kidney weight [1]: 1.6%
Liver weight [1]: 6%
Spleen weight [1]: 0.5%
ALT [2]: 214 IU/L
AST [2]: 183 IU/L
Albumin [2]: 3.4
Bilirubin [2]: 0.19 mg/dL
Cholesterol [2]: 114 mg/dL
BUN [3]: 29 mg/dL
HCT [4]: 50%
Hemoglobin [4]: 15 g/dL
Lymphocyte [4]: 6284 cells/μL
Monocytes [4]: 195 cells/μL
Neutrophil [4]: 2107 cells/μL
Platelets [4]: 647 10^3/μL
RBC [4]: 10 10^6/μL
WBC [4]: 9 10^3/μL
Body weight [5]: 165 g
Kidney weight [5]: 1.0%
Liver weight [5]: 5%
Spleen weight [5]: 0.5%
ALT [6]: 84 IU/L
AST [6]: 132 IU/L
Albumin [6]: 4
Bilirubin [6]: 0.12 mg/dL
creatinine [7]: 44 mg/dL
BUN [7]: 24 mg/dL
Total urine protein [7]: 171 mg/dL
Urine protein/creatinine ratio [7]: 3.8
HCT [8]: 42%
Hemoglobin [8]: 13.4 g/dL
Lymphocyte [8]: 16807
Neutrophil [8]: 1865
Platelets [8]: 685
RBC [8]: 7.4
WBC [8]: 20

GGACGGCATTGGTGCACAGT (antisense; all C 5-methyl, all phosphorothioate, sugars by position not given here; MOE gapmer, 5-10-5) [ISIS 413482, 5-10-5 MOE gapmer]
Body weight [1]: 11 g
Kidney weight [1]: 1.6%
Liver weight [1]: 6%
Spleen weight [1]: 0.5%
ALT [2]: 54 IU/L
AST [2]: 77 IU/L
Albumin [2]: 3.0
Bilirubin [2]: 0.24 mg/dL
Cholesterol [2]: 138 mg/dL
BUN [3]: 27 mg/dL
HCT [4]: 50%
Hemoglobin [4]: 15 g/dL
Lymphocyte [4]: 5584 cells/μL
Monocytes [4]: 275 cells/μL
Neutrophil [4]: 1958 cells/μL
Platelets [4]: 818 10^3/μL
RBC [4]: 10 10^6/μL
WBC [4]: 8 10^3/μL
Body weight [5]: 158 g
Kidney weight [5]: 1.0%
Liver weight [5]: 5%
Spleen weight [5]: 0.6%
ALT [6]: 59 IU/L
AST [6]: 157 IU/L
Albumin [6]: 4
Bilirubin [6]: 0.14 mg/dL
creatinine [7]: 34 mg/dL
BUN [7]: 23 mg/dL
Total urine protein [7]: 157 mg/dL
Urine protein/creatinine ratio [7]: 4.8
HCT [8]: 40%
Hemoglobin [8]: 13.2 g/dL
Lymphocyte [8]: 11430
Neutrophil [8]: 1125
Platelets [8]: 641
RBC [8]: 7.1
WBC [8]: 13
